“Also recorded” adds a separate entry of the source.
Test system: RAW264.7 murine macrophages
Test: Cytokine/chemokine induction in wild-type RAW264.7 murine macrophages (multiplexed immunoassay)
Format: cell-based
Settings: wild-type RAW264.7 murine macrophage cell line
Description: Cytokine induction by 7e and 7f was examined in murine-derived cell lines. […] The absence of activity was not due to extensive plasma protein binding by re-examining under near-serum-free conditions.
Example 5: High-throughput screens in porcine blood: Curated compound collections were obtained from the Institute for Therapeutics Discovery & Development at the University of Minnesota. Compound transfers from source (80 nL of 10 mM stocks) to assay plates were performed using an Echo 550 acoustic liquid handler (Labcyte, Sunnyvale, Calif.). For most libraries, a target final concentration of 10 μM of compound (in a final volume of 80 μL for the assay described below) was achieved. Compound plates were hermetically sealed and stored at −80° C. until used. Fresh, heparin-anticoagulated porcine blood from healthy animals were obtained under USDA supervision from Midwest Research Swine, LLC (Glencoe, Minn.). 80 μL of hematocrit-enriched porcine blood (low-speed centrifugation, followed by resuspension in DMEM supplemented with 10% fetal bovine serum) was added to compound plates and incubated for 15 h. […] NF-κB translocation was assayed spectrophotometrically using an alkaline phosphatase-specific chromogen (present in HEK-detection medium as supplied by InvivoGen) at 620 nm using a SpectraMax M4 multimode microplate reader (Molecular Devices, Sunnyvale, Calif.). […] Example 7: Human NOD1/2-specific reporter gene assays (NF-κB induction), and TLR-2/-3/-4/-5/-7/-8/-9/STING/ISG counter-screens: The induction of NF-κB was quantified using human TLR-2/-3/-4/-5/-7/-8/-9/NOD-1/NOD-2/STING/ISG-specific, rapid-throughput, liquid handler-assisted reporter gene assays as previously described by us (Wu, W. et al. J. Med. Chem. 2010, 53, 3198-3213; Shukla, N. M. et al. J. Med. Chem. 2010, 53, 4450-4465; Agnihotri, G. et al. J. Med. Chem. 2011, 54, 1490-1510 and Ukani, R. et al. Bioorg. Med. Chem. Lett. 2012, 22, 293-295). […]

Structure (SMILES)	induction of chemokines and proinflammatory cytokines
CCCCCc1nc2ccccc2n1-c1csc(C(N)=O)c1 [Compound 7e, 4-(2-Pentyl-1H-benzo[d]imidazol-1-yl)thiophene-2-carboxamide]	potently immunostimulatory; also recorded: induction of chemokines and cytokines
CCCCCCc1nc2ccccc2n1-c1csc(C(N)=O)c1 [Compound 7f, 4-(2-Hexyl-1H-benzo[d]imidazol-1-yl)thiophene-2-carboxamide]	potently immunostimulatory; also recorded: essentially identical to that of 7e

Source: patent US11465998B2, “Therapeutic compounds and methods of use thereof” (Regents of the University of Minnesota, priority 2019, dated 2022)
